Results from article PMC10647616, “Side-Chain Modified [^99mTc]Tc-DT1 Mimics: A Comparative Study in NTS1R-Positive Models” (International Journal of Molecular Sciences, 2023).
Residues, ends and D or L forms follow the SMILES beside them. *: point of attachment. N4 = 6-(carboxy)-1,4,8,11-tetraazaundecane chelator, NCCNCC(CNCCN)C(=O)*; Butanoyl(4-(4-MePh)) = Cc1ccc(CCCC(=O)*)cc1; X1 = NCCNCC(CNCCN)C(=O)*

Key:
human NTS1R = target: T1, human NTS1R (Homo sapiens, UniProt P30989); test: Competition binding against [125I]I-Tyr3-NT in WiDr cell membrane homogenates; settings: WiDr cell membranes, 1 h at 22 °C, mean ± sd; read-out: IC50, [125I]I-Tyr3-NT displacement from NTS1R binding sites
T1 construct: freshly prepared membrane homogenates of human colon adenocarcinoma WiDr cells; endogenous in cells; host or cells: WiDr human colon adenocarcinoma cells (membrane homogenates)
Description: Aliquots of the cell membrane homogenates from WiDr cells (collected and stored at −80 °C in Tris/EDTA:10 mM of Tris, 0.1 mM of EDTA, pH 7.4) were thawed, combined and diluted in cold BB. In RIA tubes in triplicate, the test peptide (30 µL) of each concentration point, radioligand (70 µL) and membrane homogenate (200 µL) were consecutively added and thoroughly vortexed. Samples were placed for 1 h in the Incubator-Orbital Shaker (MPM Instr. Srl; Bernareggio, Italy) at 22 °C under constant steering. […] The samples were aspirated, and individual filters corresponding to each tube were collected in separate plastic tubes and measured for radioactivity on the γ-counter. Inhibition curves were plotted and the half maximal inhibitory concentration (IC50) values were calculated by applying a nonlinear one-site model (GraphPad Prism—6 Software, San Diego, CA, USA). The results for each compound are given as the average IC50 values ± sd of at least three independent repetitions of the experiment performed in triplicate.

AsPC-1 cells = test: Time-dependent radioligand internalization in AsPC-1 cells; format: cell-based, human; settings: 37 °C, at 1 h, non-specific (1 μM NT) subtracted
Description: The time-dependent internalization of [^99mTc]Tc-DT10/11/12 was directly compared with [^99mTc]Tc-DT1 via incubation in AsPC-1 cells at 37 °C for 15 min, 30 min, 1 h and 2 h. The cells were seeded in 6-well plates (1 × 10^6 per well) and left in the incubator overnight. The next day, the cells were washed twice with ice-cold internalization medium (IM, RPMI supplemented with 1% FBS). The plates were placed on the bench and the following solutions were successively added per well: warm IM (1200 µL at 37 °C), radioligand (250 fmol in 150 µL of IM) and either IM (150 µL; 3 upper wells: total series) or NT (10^−5 M in IM, 3 bottom wells: non-specific series). The plates were placed in the incubator at 37 °C and, at the predetermined time points, were retrieved and placed on ice. […] The three fractions collected per well in separate RIA tubes (supernatant, MB and internalized) were measured for their radioactivity content on the γ-counter. The radioactivity of each fraction was then assessed as a percentage of the initial activity added per well. By subtracting the non-specific fractions from the respective total fractions, the specific MB and internalization fractions could be determined. […] The results were expressed as mean ± sd.

albumin = albumin (Bos taurus, UniProt P02769); format: in vitro ADME, bovine
Description: The binding of the new [^99mTc]Tc-DT10/11/12 and the [^99mTc]Tc-DT1 reference to albumin was compared via the incubation of radioligands in BSA-treated 6-well plates. Accordingly, HEPES-buffered saline (150 mM of NaCl, 20 mM of HEPES, pH 7.4) supplemented with 0.5% w/v BSA (1200 µL of HBS-BSA) was added to each well, followed by the radioligand (250 fmol peptide, in 150 µL of HBS) and either HBS-BSA (150 µL, total binding) or Ibuprofen (22.2 mg/mL in HBS, 150 µL), to reach a total final volume of 1.5 mL. The plates were incubated in triplicate at 37 °C for 30 min in the incubator. Next, the supernatants were discarded and the wells were treated with 1 M NaOH (2 × 600 µL). The lysates were combined and collected in RIA tubes for radioactivity measurement on the γ-counter. Binding to albumin was calculated as a percentage of the measured activity vs. the activity originally added per well. The experiments were performed at least three times in triplicate and the results represent the average binding to albumin ± sd.

T1 sequence (P30989 whole entry): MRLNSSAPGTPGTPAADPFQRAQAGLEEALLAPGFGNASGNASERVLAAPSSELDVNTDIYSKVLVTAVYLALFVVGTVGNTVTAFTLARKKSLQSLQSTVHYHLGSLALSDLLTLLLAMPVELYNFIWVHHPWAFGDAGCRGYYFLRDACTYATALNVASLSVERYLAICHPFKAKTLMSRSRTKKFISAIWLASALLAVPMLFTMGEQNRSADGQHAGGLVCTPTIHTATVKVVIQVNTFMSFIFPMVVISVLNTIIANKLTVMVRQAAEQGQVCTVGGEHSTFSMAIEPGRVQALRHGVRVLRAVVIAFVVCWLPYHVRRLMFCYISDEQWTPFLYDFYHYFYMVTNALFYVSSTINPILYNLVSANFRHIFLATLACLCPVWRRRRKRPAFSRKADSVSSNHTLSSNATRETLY
Sequence of albumin (P02769 25-607): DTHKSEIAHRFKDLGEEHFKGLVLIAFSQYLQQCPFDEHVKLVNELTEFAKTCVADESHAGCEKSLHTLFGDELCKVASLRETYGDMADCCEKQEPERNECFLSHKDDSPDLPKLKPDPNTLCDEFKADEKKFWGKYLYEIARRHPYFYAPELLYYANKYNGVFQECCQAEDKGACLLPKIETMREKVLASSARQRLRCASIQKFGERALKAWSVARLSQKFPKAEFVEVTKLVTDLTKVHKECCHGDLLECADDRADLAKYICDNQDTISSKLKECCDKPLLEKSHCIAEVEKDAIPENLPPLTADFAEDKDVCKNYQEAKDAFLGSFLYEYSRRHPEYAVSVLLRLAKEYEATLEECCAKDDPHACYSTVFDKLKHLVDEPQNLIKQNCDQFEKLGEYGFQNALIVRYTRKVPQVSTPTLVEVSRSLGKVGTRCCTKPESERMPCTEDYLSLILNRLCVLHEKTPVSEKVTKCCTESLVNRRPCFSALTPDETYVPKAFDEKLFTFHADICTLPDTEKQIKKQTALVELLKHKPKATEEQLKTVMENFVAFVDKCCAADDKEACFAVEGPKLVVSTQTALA

Compound | IC50 (human NTS1R) | specific internalization (AsPC-1 cells) | binding to albumin (albumin)
CC[C@H](C)[C@H](NC(=O)[C@H](Cc1ccc(O)cc1)NC(=O)[C@@H]1CCCN1C(=O)[C@H](CCCNC(=N)N)NC(=O)[C@H](CCCNC(=N)N)NC(=O)CNC(=O)C(CNCCN)CNCCN)C(=O)N[C@@H](CC(C)C)C(=O)O [DT1, N4-Gly-Arg-Arg-Pro-Tyr-Ile-Leu-OH] (X1-GRRPYIL-OH) | 0.14 ± 0.01 nM | – | –
CC[C@H](C)[C@H](NC(=O)[C@H](Cc1ccc(O)cc1)NC(=O)[C@@H]1CCCN1C(=O)[C@H](CCCNC(=N)N)NC(=O)[C@H](CCCNC(=N)N)NC(=O)[C@H](CCCCNC(=O)CCCc1ccc(C)cc1)NC(=O)C(CNCCN)CNCCN)C(=O)N[C@@H](CC(C)C)C(=O)O [DT10] (X1-K(Butanoyl(4-(4-MePh)))RRPYIL-OH) | 0.06 ± 0.03 nM | – | –
[^99mTc]Tc-DT1: Tc-99m labeled DT1 (N4-Gly-Arg-Arg-Pro-Tyr-Ile-Leu-OH), unmodified reference radioligand (N4-GRRPYIL-OH; also: 99mTc complexed by N4 chelator) | – | 15.1 ± 2.3% | < 1.0%
